According to ChEMBL document CHEMBL3217548, “Biological activity and DNA binding studies of 2-substituted benzimidazo[1,2-a]quinolines bearing different amino side chains” (Medchemcomm, 2013):
Activity calls are given as the source filed them. The calls are words filed in the database; no cut-off is given here.

What was measured:
[1] = system: HCT-116; assay: Cell cycle arrest in human HCT116 cells assessed as accumulation at subG1 phase at 1 uM after 24 hrs by propidium iodide staining-based FACS analysis (reference value: 2 +/- 0.1 %); type: functional
[2] = Drug uptake in human H460 cell cytoplasm at 10 uM after 2 hrs by fluorescence microscopy; type: ADME, cell-based; conditions: h460, 2 h
[3] = system: HCT-116; assay: Cell cycle arrest in human HCT116 cells assessed as accumulation at G2/M phase at 1 uM after 24 hrs by propidium iodide staining-based FACS analysis (reference value: 29 +/- 8 %); type: functional
[4] = Binding affinity to DNA (unknown origin) at 1 to 10 uM after 15 mins by DNA footprinting assay
[5] = Drug uptake in human H460 cell nucleus at 10 uM after 2 hrs by confocal laser scanning microscopy; type: ADME, cell-based; conditions: h460, 2 h
[6] = system: HCT-116; assay: Cell cycle arrest in human HCT116 cells assessed as accumulation at G2/M phase at 1 uM after 48 hrs by propidium iodide staining-based FACS analysis (reference value: 28 +/- 3 %); type: functional
[7] = Drug uptake in human H460 cell nucleus at 10 uM after 2 hrs by fluorescence microscopy; type: ADME, cell-based; conditions: h460, 2 h
[8] = Cytotoxicity against human H460 cells after 72 hrs by MTT assay; type: functional, cell-based; conditions: NCI-H460, 72 h
[9] = system: HCT-116; assay: Cell cycle arrest in human HCT116 cells assessed as accumulation at G1 phase at 0.1 uM after 24 hrs by propidium iodide staining-based FACS analysis (reference value: 23 +/- 2 %); type: functional
[10] = system: HCT-116; assay: Cell cycle arrest in human HCT116 cells assessed as accumulation at subG1 phase after 24 hrs by propidium iodide staining-based FACS analysis; type: functional
[11] = system: HCT-116; assay: Cell cycle arrest in human HCT116 cells assessed as accumulation at subG1 phase at 0.1 uM after 24 hrs by propidium iodide staining-based FACS analysis (reference value: 2 +/- 0.1 %); type: functional
[12] = Drug uptake in human H460 cell lysosome at 10 uM after 2 hrs by confocal laser scanning microscopy; type: ADME, cell-based; conditions: h460, 2 h
[13] = system: HCT-116; assay: Cytotoxicity against human HCT116 cells after 72 hrs by MTT assay; type: functional, cell-based; conditions: HCT-116, 72 h
[14] = target: T1, DNA topoisomerase 1 (Homo sapiens) (UniProt P11387); assay: Inhibition of human DNA topoisomerase 1 assessed as inhibition of DNA cleavage
T1 sequence (whole entry): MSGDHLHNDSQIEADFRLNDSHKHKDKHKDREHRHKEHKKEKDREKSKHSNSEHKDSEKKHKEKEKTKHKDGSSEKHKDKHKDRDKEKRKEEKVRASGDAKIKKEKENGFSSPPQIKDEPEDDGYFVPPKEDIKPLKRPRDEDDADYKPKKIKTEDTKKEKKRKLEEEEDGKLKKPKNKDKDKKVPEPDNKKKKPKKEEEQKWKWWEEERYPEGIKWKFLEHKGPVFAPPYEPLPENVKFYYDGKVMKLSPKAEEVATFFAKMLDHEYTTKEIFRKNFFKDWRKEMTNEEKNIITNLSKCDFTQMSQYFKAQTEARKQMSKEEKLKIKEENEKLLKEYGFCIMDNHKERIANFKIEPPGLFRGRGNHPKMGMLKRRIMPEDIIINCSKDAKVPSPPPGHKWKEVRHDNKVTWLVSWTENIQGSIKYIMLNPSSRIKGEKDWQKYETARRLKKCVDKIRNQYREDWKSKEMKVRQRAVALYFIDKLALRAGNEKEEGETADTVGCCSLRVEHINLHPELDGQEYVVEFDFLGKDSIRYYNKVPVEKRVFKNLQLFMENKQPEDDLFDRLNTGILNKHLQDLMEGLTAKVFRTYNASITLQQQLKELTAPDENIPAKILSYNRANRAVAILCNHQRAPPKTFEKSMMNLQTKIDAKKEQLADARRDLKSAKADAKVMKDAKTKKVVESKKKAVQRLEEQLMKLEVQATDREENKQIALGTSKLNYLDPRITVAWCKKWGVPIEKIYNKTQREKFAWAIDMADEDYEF

[15] = system: HCT-116; assay: Cell cycle arrest in human HCT116 cells assessed as accumulation at G1 phase at 1 uM after 24 hrs by propidium iodide staining-based FACS analysis (reference value: 23 +/- 2 %); type: functional
[16] = system: HCT-116; assay: Cell cycle arrest in human HCT116 cells assessed as accumulation at S phase at 0.1 uM after 24 hrs by propidium iodide staining-based FACS analysis (reference value: 48 +/- 6 %); type: functional
[17] = system: HCT-116; assay: Cell cycle arrest in human HCT116 cells assessed as accumulation at G2/M phase at 0.1 uM after 24 hrs by propidium iodide staining-based FACS analysis (reference value: 29 +/- 8 %); type: functional
[18] = system: HCT-116; assay: Cell cycle arrest in human HCT116 cells assessed as accumulation at S phase at 0.1 uM after 48 hrs by propidium iodide staining-based FACS analysis (reference value: 12+/- 5 %); type: functional
[19] = system: HCT-116; assay: Cell cycle arrest in human HCT116 cells assessed as accumulation at S phase at 1 uM after 24 hrs by propidium iodide staining-based FACS analysis (reference value: 48 +/- 6 %); type: functional
[20] = system: Calf thymus DNA; assay: Binding affinity to calf thymus DNA assessed as change in melting temperature at 0.5 drug/DNA ratio by spectrophotometry; type: nucleic-acid assay; conditions: Bos taurus
[21] = system: HCT-116; assay: Cell cycle arrest in human HCT116 cells assessed as accumulation at subG1 phase at 1 uM after 48 hrs by propidium iodide staining-based FACS analysis (reference value: 5 +/- 2 %); type: functional
[22] = system: HCT-116; assay: Cell cycle arrest in human HCT116 cells assessed as accumulation at S phase at 1 uM after 48 hrs by propidium iodide staining-based FACS analysis (reference value: 12+/- 5 %); type: functional
[23] = organism: Homo sapiens; assay: Inhibition of human DNA topoisomerase 2 assessed as inhibition of DNA cleavage
[24] = system: HCT-116; assay: Cell cycle arrest in human HCT116 cells assessed as accumulation at G1 phase at 0.1 uM after 48 hrs by propidium iodide staining-based FACS analysis (reference value: 60 +/- 2 %); type: functional
[25] = Drug uptake in human H460 cell endosome at 10 uM after 2 hrs by confocal laser scanning microscopy; type: ADME, cell-based; conditions: h460, 2 h
[26] = system: HCT-116; assay: Cell cycle arrest in human HCT116 cells assessed as accumulation at G1 phase at 1 uM after 48 hrs by propidium iodide staining-based FACS analysis (reference value: 60 +/- 2 %); type: functional
[27] = system: HCT-116; assay: Cell cycle arrest in human HCT116 cells assessed as accumulation at subG1 phase at 0.1 uM after 48 hrs by propidium iodide staining-based FACS analysis (reference value: 5 +/- 2 %); type: functional
[28] = system: H460; assay: Binding affinity to chromosomal DNA in human H460 cells at 10 uM after 2 hrs by confocal laser scanning microscopy; type: cell-based
[29] = system: HCT-116; assay: Cell cycle arrest in human HCT116 cells assessed as accumulation at G2/M phase at 0.1 uM after 48 hrs by propidium iodide staining-based FACS analysis (reference value: 28 +/- 3 %); type: functional
[30] = system: MCF7; assay: Cytotoxicity against human MCF7 cells after 72 hrs by MTT assay; type: functional, cell-based; conditions: MCF7, 72 h
[31] = system: DNA; assay: Induction of DNA damage in plasmid DNA in E. coli S30 cell-free system assessed as inhibition of EGFP translation at 50 uM after 1 hr by fluorescence assay
[32] = system: HCT-116; assay: Cell cycle arrest in human HCT116 cells assessed as accumulation at subG1 phase at 5 uM after 24 hrs by propidium iodide staining-based FACS analysis; type: functional
[33] = system: Escherichia coli; assay: Binding affinity to Escherichia coli pUC19 plasmid assessed as nicked DNA at 0.1 to 5 uM by ethidium bromide staining-based agarose gel electrophoresis
[34] = system: Calf thymus DNA; assay: Binding affinity to calf thymus DNA assessed as DNA intercalation at 1 to 50 uM by circular dichroism analysis; type: nucleic-acid assay; conditions: Bos taurus
[35] = system: Calf thymus DNA; assay: Binding affinity to calf thymus DNA assessed as hypochromic shift at 20 uM by UV/visible spectrophotometry; type: nucleic-acid assay; conditions: Bos taurus
[36] = system: Calf thymus DNA; assay: Binding affinity to calf thymus DNA assessed as bathochromic shift at 20 uM by UV/visible spectrophotometry; type: nucleic-acid assay; conditions: Bos taurus
[37] = Drug uptake in human H460 cell endoplasmic reticulum at 10 uM after 2 hrs by fluorescence microscopy; type: ADME, cell-based; conditions: h460, 2 h
[38] = system: Calf thymus DNA; assay: Binding affinity to calf thymus DNA assessed as DNA intercalation by circular dichroism analysis; type: nucleic-acid assay; conditions: Bos taurus
[39] = Drug uptake in human H460 cell nucleoli at 10 uM after 2 hrs by fluorescence microscopy; type: ADME, cell-based; conditions: h460, 2 h
[40] = system: Escherichia coli; assay: Binding affinity to Escherichia coli pUC19 plasmid assessed as induction of topoisomerase1-mediated DNA relaxation at 1 uM incubated for 45 mins prior to topoisomerase1 addition by agarose gel electrophoresis

Structure (SMILES) | Activity [1] [%] | Activity [3] [%] | Activity [4] | Activity [6] [%] | IC50 [8] [nM] | Activity [9] [%] | Activity [10] | Activity [11] [%] | IC50 [13] [nM] | Activity [14] | Activity [15] [%] | Activity [16] [%] | Activity [17] [%] | Activity [18] [%] | Activity [19] [%] | ΔTm [20] [°C] | Activity [21] [%] | Activity [22] [%] | Activity [23] | Activity [24] [%] | other results
CN(C)CCCNc1ccc2cc(C#N)c3nc4ccccc4n3c2c1 | 5 | 65 | Active | 58 | 300 | 13 | Dose-dependent effect | 6 | 230 | inactive | 22 | 47 | 40 | 23 | 13 | 19.2 | 8 | 1 | inactive | 60 | Drug uptake [2]: Active; Drug uptake [5]: Active; Drug uptake [7]: Active; Drug uptake [12]: Active; Drug uptake [25]: Active; Activity [26]: 41%; Activity [27]: 4%; Activity [28]: Active; Activity [29]: 17%; IC50 [30]: 400 nM; inhibition at 50 µM [31]: 72%; Activity [32]: 40%; Activity [33]: Active; Activity [34]: Active; Activity [35]: Active; Activity [36]: Active
N#Cc1cc2ccc(N3CCNCC3)cc2n2c1nc1ccccc12 | 12 | 85 | Active | 69 | 200 | 19 | Dose-dependent effect | 2 | 60 | inactive | 15 | 1 | 80 | 11 | 0 | 17.3 | 12 | 1 | inactive | 59 | Drug uptake [37]: Active; Activity [38]: Dose-dependent effect; Drug uptake [39]: Active; Activity [26]: 30%; Activity [27]: 11%; Activity [29]: 30%; Activity [40]: Active; IC50 [30]: 200 nM; inhibition at 50 µM [31]: 38%; Activity [32]: 40%; Activity [33]: Active; Activity [35]: Active; Activity [36]: Active
